Like-named read-outs stand apart in the source and are kept apart here.
Experiments:
[1] = molecular target: T1, angiotensin II receptor type 1 (AT1), suprarenal gland of rabbit (Oryctolagus cuniculus, UniProt P34976); experiment: Receptor binding test, AT1 (tracer 3H-angiotensin II, displacer DuP753); conditions: room temperature, read-out: Binding inhibition ratio (%) of the test compounds at 1 μM, AT1
T1 construct: Receptor: suprarenal gland of rabbit; from tissue; host or cells: suprarenal gland (adrenal) of rabbit
T1 sequence (P34976 1-359): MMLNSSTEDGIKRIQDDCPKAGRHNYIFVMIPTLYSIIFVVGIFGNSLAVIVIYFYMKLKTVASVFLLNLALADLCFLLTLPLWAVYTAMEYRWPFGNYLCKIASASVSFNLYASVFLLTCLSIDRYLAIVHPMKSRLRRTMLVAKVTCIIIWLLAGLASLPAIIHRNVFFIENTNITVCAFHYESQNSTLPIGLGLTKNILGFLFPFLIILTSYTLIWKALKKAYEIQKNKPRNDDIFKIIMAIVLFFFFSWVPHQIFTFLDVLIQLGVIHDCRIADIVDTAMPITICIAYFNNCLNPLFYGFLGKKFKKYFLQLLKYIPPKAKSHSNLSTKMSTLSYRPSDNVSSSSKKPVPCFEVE
Procedure: Determination of total binding in the presence of each drug to be tested was made in the following way. A test drug of a predetermined concentration (0.025 ml; dissolved in dimethyl sulfoxide, then diluted two-fold with a buffer attached to the Drug Discovery System and used for assay), a tracer (0.025 ml), and a receptor (0.2 ml) were added to make a total volume of 0.25 ml. After incubation (at room temperature for 3 hours for the angiotensin II receptor type 1 (AT1) and at 37° C. for one hour for the type 2 (AT2)), the reaction mixture was subjected to suction filtration (using GF/C filter paper for AT1 and GF/B filter paper for AT2). The filter paper (tracer-receptor complex) after suction filtration was measured by a y-well counter (ARC-500, Aloka). The non-specific binding was determined by the similar operation by using a large excess of displacer. The specific binding at the predetermined concentration of the test drug was calculated by deducting the non-specific binding from the total binding. The ratio (%) at which the test drugs inhibit binding between radioactive ligand and receptor was determined for both AT1 and AT2 by using the test drugs of the predetermined concentration and a control drug. | *Receptor: suprarenal gland of rabbit Tracer: ^3 Hangiotensin II | (displacer: […])

[2] = molecular target: T2, angiotensin II receptor type 2 (AT2), bovine cerebellar cortex (Bos taurus, UniProt G5E6F7); experiment: Receptor binding test, AT2 (tracer 125I-Tyr4-angiotensin II, displacer angiotensin II (human)); conditions: 1 h, read-out: Binding inhibition ratio (%) of the test compounds at 1 μM, AT2
T2 construct: Receptor: bovine cerebellar cortex; from tissue; host or cells: bovine cerebellar cortex
T2 sequence (G5E6F7 1-362): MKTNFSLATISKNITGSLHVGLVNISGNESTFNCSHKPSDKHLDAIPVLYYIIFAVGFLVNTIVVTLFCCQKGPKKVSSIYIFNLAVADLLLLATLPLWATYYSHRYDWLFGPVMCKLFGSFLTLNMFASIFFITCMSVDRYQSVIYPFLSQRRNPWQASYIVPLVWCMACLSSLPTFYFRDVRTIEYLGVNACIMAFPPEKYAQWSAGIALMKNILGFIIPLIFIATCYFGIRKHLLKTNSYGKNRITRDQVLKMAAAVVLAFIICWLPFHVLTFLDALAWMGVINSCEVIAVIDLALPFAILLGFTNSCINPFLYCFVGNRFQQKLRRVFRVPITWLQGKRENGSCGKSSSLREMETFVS
Procedure: Determination of total binding in the presence of each drug to be tested was made in the following way. A test drug of a predetermined concentration (0.025 ml; dissolved in dimethyl sulfoxide, then diluted two-fold with a buffer attached to the Drug Discovery System and used for assay), a tracer (0.025 ml), and a receptor (0.2 ml) were added to make a total volume of 0.25 ml. After incubation (at room temperature for 3 hours for the angiotensin II receptor type 1 (AT1) and at 37° C. for one hour for the type 2 (AT2)), the reaction mixture was subjected to suction filtration (using GF/C filter paper for AT1 and GF/B filter paper for AT2). The filter paper (tracer-receptor complex) after suction filtration was measured by a y-well counter (ARC-500, Aloka). The non-specific binding was determined by the similar operation by using a large excess of displacer. The specific binding at the predetermined concentration of the test drug was calculated by deducting the non-specific binding from the total binding.

[3] = 1 μM, receptor: bovine cerebellar cortex, 37° C., one hour

Row | Structure (SMILES) | inhibition at 1 µM [1] [%] | inhibition at 1 µM [2, 3] [%] | inhibition at 1 µM [2] [%]
1 | Cc1cc(Cn2cnc3c2CC(C(=O)O)N(C(=O)C(c2ccccc2)c2ccccc2)C3)ccc1NC(=O)c1ccccc1C(=O)O (centres unmarked) [Reference compound 1, reference compound] | 0 | 71 | –
2 | CCCc1nc2c(n1Cc1ccc(-c3ccccc3-c3nn[nH]n3)c(C)c1)CC(C(=O)O)N(C(=O)C(c1ccccc1)c1ccccc1)C2 (centres unmarked) [Reference compound 26, reference compound] | 78 | 0 | –
3 | COC(=O)C1Cc2c(ncn2Cc2ccc(NC(=O)c3ccccc3C(=O)O)c(C)c2)CN1C(=O)C(c1ccccc1)c1ccccc1 (centres unmarked) [Reference compound 2, reference compound] | 0 | 72 | –
4 | O=C(O)C1Cc2c(ncn2Cc2ccc(-c3ccccc3-c3nn[nH]n3)cc2)CN1C(=O)C(c1ccccc1)c1ccccc1 (centres unmarked) [Reference compound 27, reference compound] | 0 | 76 | –
5 | CCCCc1nc(Cl)c(CO)n1Cc1ccc(-c2ccccc2-c2nn[nH]n2)cc1 [DuP753, reference compound] | 70 | – | 0
6 | CCCc1nc2c(n1Cc1ccc(-c3ccccc3-c3nn[nH]n3)cc1)CC(C(=O)O)N(C(=O)C(c1ccccc1)c1ccccc1)C2 (centres unmarked) [Reference compound 50, reference compound] | 75 | 0 | –

The next lines start with results.

Row | inhibition at 1 µM [1] [%] | inhibition at 1 µM [2, 3] [%] | Structure (SMILES) | inhibition at 1 µM [2] [%]
7 | 0 | 100 | Cc1cc(Cn2cnc3c2C[C@@H](C(=O)N(C)C)N(C(=O)C(c2ccccc2)c2ccccc2)C3)ccc1NC(=O)c1ccccc1C(=O)O [Compound I-2, (S)-1-(4-(2-carboxybenzoylamino)-3-methylphenyl)methyl-N,N-dimethyl-5-diphenylacetyl-4,5,6,7-tetrahydro-1H-imidazo[4,5-c]pyridine-6-carboxamide] | –
8 | 100 | 0 | CCCCc1nc2c(n1Cc1ccc(-c3ccccc3-c3nn[nH]n3)cc1)C[C@@H](C(=O)N1CCSCC1)N(C(=O)C(c1ccccc1)c1ccccc1)C2 [Compound I-32] | –
9 | 100 | 0 | CCCCc1nc2c(n1Cc1ccc(-c3ccccc3-c3nn[nH]n3)c(C)c1)C[C@@H](C(=O)N(C)C)N(C(=O)C(c1ccccc1)c1ccccc1)C2 [Compound I-19] | –
10 | 100 | 0 | CCCCc1nc2c(n1Cc1ccc(-c3ccccc3C(=O)O)cc1)C[C@@H](C(=O)N(C)C)N(C(=O)C(c1ccccc1)c1ccccc1)C2 [Compound I-17] | –
11 | 0 | 65 | Cc1cc(Cn2cnc3c2CC(C(=O)O)N(C(=O)C(c2ccccc2)c2ccccc2)C3)ccc1N (centres unmarked) [PD123177, reference compound] | –
12 | 100 | 0 | CCCCc1nc2c(n1Cc1ccc(NC(=O)c3ccccc3C(=O)O)c(C)c1)C[C@@H](C(=O)N1CCOCC1)N(C(=O)C(c1ccccc1)c1ccccc1)C2 [Compound I-30] | –
13 | 100 | 0 | CCCCc1nc2c(n1Cc1ccc(-c3ccccc3-c3nn[nH]n3)cc1)C[C@@H](C(=O)N1CCOCC1)N(C(=O)C(c1ccccc1)c1ccccc1)C2 [Compound I-31] | –
14 | 100 | 0 | CCCCc1nc2c(n1Cc1ccc(-c3ccccc3-c3nn[nH]n3)cc1)C[C@@H](C(=O)N(CC)CC)N(C(=O)C(c1ccccc1)c1ccccc1)C2 [Compound I-40] | –
15 | 0 | 100 | CN(C)C(=O)[C@@H]1Cc2c(ncn2Cc2ccc(NC(=O)c3ccccc3C(=O)O)cc2)CN1C(=O)C(c1ccccc1)c1ccccc1 [Compound I-1] | –
16 | 0 | 100 | O=C([C@@H]1Cc2c(ncn2Cc2ccc(-c3ccccc3-c3nnn[nH]3)cc2)CN1C(=O)C(c1ccccc1)c1ccccc1)N1CCOCC1 [Compound I-24, 4-[[(S)-5-diphenylacetyl-1-[(2'-(1H-tetrazol-5-yl)biphenyl-4-yl)methyl]-4,5,6,7-tetrahydro-1H-imidazo[4,5-c]pyridin-6-yl]carbonyl]morpholine] | –
17 | 100 | 0 | CCCCc1nc2c(n1Cc1ccc(NC(=O)c3ccccc3C(=O)O)c(C)c1)C[C@@H](C(=O)N(C)C)N(C(=O)C(c1ccccc1)c1ccccc1)C2 [Compound I-12] | –
18 | 0 | 100 | O=C(O)c1ccc(Cn2cnc3c2C[C@@H](C(=O)N2CCOCC2)N(C(=O)C(c2ccccc2)c2ccccc2)C3)cc1 [Compound I-21] | –
19 | 0 | 100 | Cc1cc(Cn2cnc3c2C[C@@H](C(=O)N2CCOCC2)N(C(=O)C(c2ccccc2)c2ccccc2)C3)ccc1NC(=O)c1ccccc1C(=O)O [Compound I-7] | –
